According to patent US20240099967A1, “INHALABLE COMPOSITION OF CLOFAZIMINE AND METHODS OF USE THEREOF” (priority 2017, published 2024):

Key:
[1] = Sabnis et al., 2015; cited from earlier work
[2] = test system: Mycobacterium leprae, Mycobacterium avium complex (MAC), and M. tuberculosis; details: against mycobacterium such as M. leprae; cited from earlier work
[3] = Geometric particle size distribution by HELOS laser diffraction with RODOS dispersion; type: physicochemical; details: averaged n = 3
J774.A1 macrophages = experiment: Flow cytometric quantification of clofazimine uptake and biotransformation to liquid crystals; type: cell-based, murine

SMILES	clofazimine solution in methanol that can be formed [1] [%]	minimum inhibitory concentration (MIC) [2] [µg/mL]	Span [3]	X10 ([3]; first column) [μm]	X10 ([3]; second column) [μm]	X10 ([3]; third column) [μm]	cells fluorescent at 660 nm emission (biotransformation to liquid crystals) (J774.A1 macrophages; J774.A1, 24 hours exposure) [%]	cells containing drug, fluorescence at 610 nm emission (crystalline clofazimine) (J774.A1 macrophages; J774.A1, 24 hours exposure, 10,000 cells) [%]	cell proliferation/viability compared to control (J774.A1 cells)
CC(C)N=c1cc2n(-c3ccc(Cl)cc3)c3ccccc3nc-2cc1Nc1ccc(Cl)cc1 [clofazimine, N,5-bis(4-chlorophenyl)-3-(1-methylethylimino)-5H-phenazin-2-amine]	0.1	0.125 to 2	2.62	1.55	7.90	21.96	–	–	–
CC(C)/N=c1\cc2n(-c3ccc(Cl)cc3)c3ccccc3nc-2cc1Nc1ccc(Cl)cc1 [solubilized clofazimine]	–	–	–	–	–	–	0.21	2.48	significant decrease
